According to publication PMC6792352, “Limited Chemical Structural Diversity Found to Modulate Thyroid Hormone Receptor in the Tox21 Chemical Library” (Environmental Health Perspectives, 2019):
Where two headings read alike, the source gives them in different places.

How the values were obtained:
[1] = target: T1, human TRβ ligand-binding domain (Homo sapiens, UniProt P10828); assay: TRb-bla agonist mammalian one-hybrid beta-lactamase assay (TOX21_TRB_BLA_Agonist_Followup_ratio, aeid 2236); format: cell-based; set-up: host or cells: GeneBLAzer UAS-bla HEK 293T; conditions: for AC50: HEK 293T one-hybrid, agonist mode, read-out: TRb-bla-Ag AC50; for TRb-bla hitc: hit call from tcpl, agonist; for Emax: read-out: EMax (% of Control) trb-bla-agonist-followup-1
T1 sequence (P10828 217-461 limits assumed): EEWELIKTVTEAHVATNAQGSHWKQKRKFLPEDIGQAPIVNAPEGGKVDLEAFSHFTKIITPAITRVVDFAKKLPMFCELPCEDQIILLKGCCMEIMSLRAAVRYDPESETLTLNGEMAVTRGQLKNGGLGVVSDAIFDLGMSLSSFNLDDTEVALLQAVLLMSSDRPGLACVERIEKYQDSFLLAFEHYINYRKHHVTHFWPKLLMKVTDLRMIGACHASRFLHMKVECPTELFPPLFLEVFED

[2] = test system: thyroid hormone receptor (endogenous TRα and TRβ); assay: GH3-TRE-Ag primary qHTS, luciferase reporter, agonist mode (TOX21_TR_LUC_GH3_Agonist, aeid 803); format: cell-based, rat; conditions: for GH3-TRE-Ag AC50 hitc: hit call from tcpl; for AC50: read-out: GH3-TRE-Ag AC50
[3] = test system: thyroid hormone receptor (TR); assay: Classification of TR actives across characterization assays (TR-Ag / RXR-Ag; TR model binary); conditions: for Categorization Code: TR agonist characterization; for Classification: TR-Ag = TR agonist, RXR-Ag = RXR agonist
In short: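 Pharmaceuticals excluded; actives called from GH3-TRE qHTS (agonist, antagonist, viability) on 8,305 chemicals. Confirmation of 84 selected chemicals used GH3-TRE-Ag, mammalian one-hybrid TRβ and RXRα UAS-bla HEK 293T specificity screens, parental HEK293T viability, and two TR:coactivator recruitment assays.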

[4] = test system: GH3-TRE-Luc cell line; assay: GH3-TRE-Via cell viability, CellTiter-Fluor (TOX21_TR_LUC_GH3_Antagonist_viability, aeid 805); conditions: hit call from tcpl
[5] = as above; conditions: rat
[6] = target: T2, TRα ligand-binding domain (Homo sapiens, UniProt P10827); assay: TRa-coa LanthaScreen TR-FRET coactivator (SRC-2 peptide) recruitment, agonist (TOX21_TRA_COA_Agonist_Followup_ratio, aeid 2230); format: biochemical; conditions: for AC50: cell-free coactivator recruitment, read-out: TRa-coa-Ag AC50; for TRa-coa hitc: hit call from tcpl, agonist; for Emax: read-out: EMax (% of Control) tra-coa-agonist-followup-1
T2 construct: the receptor LBDs expressed as glutathione S-transferase (GST) fusion proteins; purchased
T2 sequence (P10827 163-410 isoform P10827-2 limits assumed, other chains not shown): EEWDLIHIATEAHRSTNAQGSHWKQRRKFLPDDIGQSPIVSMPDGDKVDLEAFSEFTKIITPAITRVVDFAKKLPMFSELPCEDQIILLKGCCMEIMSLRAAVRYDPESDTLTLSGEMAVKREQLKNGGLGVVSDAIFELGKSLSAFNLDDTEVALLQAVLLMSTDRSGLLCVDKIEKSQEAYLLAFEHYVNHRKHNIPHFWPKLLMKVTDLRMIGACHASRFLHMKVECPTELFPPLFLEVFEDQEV

[7] = Global cytotoxicity: eighteen Tox21 cell viability assays; format: cell-based; conditions: read-out: Global cytotoxicity AC50 median
[8] = test system: Tox21 cell viability assays (different cell types); assay: as above; format: cell-based; conditions: for GLOBAL CYTOTOXICITY cytotox.median: median over Tox21 viability assays
[9] = test system: thyroid hormone receptor (endogenous TRα and TRβ); assay: GH3-TRE-Ag-Followup confirmation (TOX21_TR_LUC_GH3_Agonist_Followup, aeid 2226); format: cell-based, rat; conditions: for AC50: confirmation, agonist mode, read-out: GH3-TRE-Ag-Followup AC50; for GH3-TRE-Ag-Followup hitc: hit call from tcpl
[10] = target: T1, human TRβ ligand-binding domain; assay: TRb-coa LanthaScreen TR-FRET coactivator (SRC-2 peptide) recruitment, agonist (TOX21_TRB_COA_Agonist_Followup_ratio, aeid 2244); format: biochemical; set-up: host or cells: GeneBLAzer UAS-bla HEK 293T; conditions: for AC50: cell-free coactivator recruitment, read-out: TRb-coa-Ag AC50; for TRb-coa hitc: hit call from tcpl, agonist; for Emax: read-out: EMax (% of Control) trb-coa-agonist-followup-1
[11] = target: T3, human RXRα (Homo sapiens, UniProt P19793); assay: RXRa-bla-Ag mammalian one-hybrid beta-lactamase assay (TOX21_TR_RXR_BLA_Agonist_Followup_ratio, aeid 2253); format: cell-based
T3 construct: host or cells: GeneBLAzer UAS-bla HEK 293T
T3 sequence (P19793 227-458 limits assumed): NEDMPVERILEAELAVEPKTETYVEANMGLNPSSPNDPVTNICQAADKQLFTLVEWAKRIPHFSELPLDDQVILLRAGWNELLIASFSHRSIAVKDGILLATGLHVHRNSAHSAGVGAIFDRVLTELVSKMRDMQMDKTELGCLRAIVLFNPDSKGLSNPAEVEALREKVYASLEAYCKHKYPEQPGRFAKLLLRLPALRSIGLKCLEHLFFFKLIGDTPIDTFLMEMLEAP

[12] = test system: GH3-TRE-Luc cell line; conditions: for TR_LUC_GH3_Antagonist_viability hitc: rat, 24 h
[13] = test system: thyroid hormone receptor (endogenous TRα and TRβ); assay: GH3-TRE-Antag primary qHTS, luciferase reporter, antagonist mode with 1 nM T3 (TOX21_TR_LUC_GH3_Antagonist, aeid 804); format: cell-based, rat; conditions: antagonist mode, 1 nM T3; read-out: GH3-TRE-Antag AC50
[14] = in vitro; conditions: rat, gh3-tre-luc cells, AC50 (uM) modified / 1000
[15] = median over 18 Tox21 cell viability assays (Judson et al. 2016, invitrodb_v2)
[16] = antagonist candidates, inactive samples arbitrarily set to AC50=1,000 μM
[17] = median over 18 Tox21 cell viability assays, inactive set to 1,000

SMILES	AC50 [1]	TRb-bla hitc [1]	EMax (% of Control) gh3-tre-agonist [2]	GH3-TRE-Ag AC50 hitc [2]	Categorization Code [3]	Classification [3]	AC50 at 24 h [5]	AC50 [6]	TRa-coa hitc [6]	Emax [6]	AC50 [7, 15]	GLOBAL CYTOTOXICITY cytotox.median [8]	EMax (% of Control) gh3-tre-agonist-followup-1_agonist [9]	AC50 [9]	GH3-TRE-Ag-Followup hitc [9]	AC50 [10]	TRb-coa hitc [10]	Emax [10]	Emax [1]	GLOBAL CYTOTOXICITY cytotox.number_Active [8]	further results
CC(C)(C)CC(C)(C)c1ccc(O)c(Cc2ccc(Cl)cc2Cl)c1 [Clofoctol, reference compound]	> 92 µM	0	23.6 % of Control	1	RXR-Ag	RXR-Ag	8.04 µM	8.92 µM	1	55.5%	16.7 µM	16.7	34.4 % of Control	3 µM	1	8.93 µM	1	64.9%			TR_LUC_GH3_Antagonist_viability hitc [4]: 1; GLOBAL CYTOTOXICITY cytotox.number_Active ([8]; # active of 18 total Tox21 viability assays): 16; AC50 ([11]; HEK 293T one-hybrid, agonist mode, inactive set to 1,000, read-out: RXRa-bla-Ag AC50): 6.8 µM; tr-followup-rxr-bla-agonist-1 hitc ([11]; hit call from tcpl): 1; Emax ([11]; read-out: EMax (% of Control) tr-followup-rxr-bla-agonist-1): 36.1%; Emax ([11]; read-out: EMax in RXR assay): 36%
CC1=C(/C=C/C(C)=C/C=C/C(C)=C/C(=O)O)C(C)(C)CCC1 [all trans-Retinoic acid, reference compound]		1	29.3 % of Control	1	RXR-Ag	RXR-Ag	66.7 µM	> 92 µM	0	-0.347%	> 92 µM	>92	97.2 % of Control	1.16 µM	1	> 92 µM	0	0%	31.1%	0	AC50 ([2]; primary qHTS, agonist mode, 24 h, top concentration 92 μM): 0.234 µM; TR_LUC_GH3_Antagonist_viability hitc [12]: 1
Nc1nc(F)nc2c1ncn2[C@@H]1O[C@H](CO)[C@@H](O)[C@@H]1O [Fludarabine, reference compound]							22.3 µM														AC50 [2, 16]: > 92 µM; AC50 [7, 17]: > 92 µM; Active in global cytotoxicity assays (%) [8]: 1.7%; AC50 [13]: 16.3 µM
N#CC(c1ccc(Cl)cc1)c1c(Cl)cc(-n2ncc(=O)[nH]c2=O)cc1Cl (stereo not drawn) [Diclazuril]							> 92 µM														AC50 [2, 16]: > 92 µM; AC50 [7, 17]: 33 µM; Active in global cytotoxicity assays (%) [8]: 33.3%; active rate in Tox21 viability/cytotoxicity assays [8]: 33%; CC50 at 24 h [14]: > 50 µM; cytotoxicity in GH3 viability assay [12]: lacked cytotoxicity
CC1=C(/C=C/C(C)=C\C=C\C(C)=C\C(=O)O)C(C)(C)CCC1 [9-cis Retinoic acid, reference compound]	> 92 µM	0	31.8 % of Control	1	RXR-Ag	RXR-Ag	> 92 µM	> 92 µM	0	-0.13%	> 92 µM	>92	76.0 % of Control	2.07 µM	1	> 92 µM	0	-0.274%	5.7%	0	TR_LUC_GH3_Antagonist_viability hitc [12]: 0
